Assay results: paper PMC11148329 (Frontiers in Cellular and Infection Microbiology, 2024)
Where “and” joins values, the source holds several entries; their conditions need not be identical. Equal values may be shown once. Read-outs that look alike come from different tables or passages of the source.

What was measured:
α7 nAChR [1] = target: T1, α7 nAChR (Homo sapiens, UniProt P36544); test: cell-based; type: cell-based
Target sequence in this assay (P36544 23-502 limits assumed): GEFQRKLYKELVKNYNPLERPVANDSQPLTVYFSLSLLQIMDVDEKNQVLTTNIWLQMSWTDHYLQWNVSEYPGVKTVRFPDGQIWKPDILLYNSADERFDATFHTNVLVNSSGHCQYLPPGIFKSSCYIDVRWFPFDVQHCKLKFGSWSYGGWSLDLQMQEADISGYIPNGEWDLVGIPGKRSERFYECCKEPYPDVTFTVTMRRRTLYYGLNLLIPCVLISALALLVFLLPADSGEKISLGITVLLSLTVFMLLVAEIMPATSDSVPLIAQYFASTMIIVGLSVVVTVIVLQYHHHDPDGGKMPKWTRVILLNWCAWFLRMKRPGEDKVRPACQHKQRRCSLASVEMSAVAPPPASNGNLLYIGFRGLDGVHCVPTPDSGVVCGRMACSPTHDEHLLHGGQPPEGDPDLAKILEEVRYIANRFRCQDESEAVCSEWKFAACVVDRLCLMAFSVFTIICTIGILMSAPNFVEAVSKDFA

α7 nAChR [2] = target: T1, α7 nAChR; test: cell-based; type: cell-based; remark: listed apart in the source
Target sequence in this assay (P36544 23-502 limits assumed): as above

α4β2α5 nAChR [3] = target: T2, α4β2α5 nAChR (Homo sapiens, UniProt P17787+P30532+P43681)
(α3β2)2β2 nAChR [4] = target: T3, (α3β2)2β2 nAChR (Homo sapiens, UniProt P17787+P32297); test: cell-based
T3 sequence (P32297 32-505 limits assumed): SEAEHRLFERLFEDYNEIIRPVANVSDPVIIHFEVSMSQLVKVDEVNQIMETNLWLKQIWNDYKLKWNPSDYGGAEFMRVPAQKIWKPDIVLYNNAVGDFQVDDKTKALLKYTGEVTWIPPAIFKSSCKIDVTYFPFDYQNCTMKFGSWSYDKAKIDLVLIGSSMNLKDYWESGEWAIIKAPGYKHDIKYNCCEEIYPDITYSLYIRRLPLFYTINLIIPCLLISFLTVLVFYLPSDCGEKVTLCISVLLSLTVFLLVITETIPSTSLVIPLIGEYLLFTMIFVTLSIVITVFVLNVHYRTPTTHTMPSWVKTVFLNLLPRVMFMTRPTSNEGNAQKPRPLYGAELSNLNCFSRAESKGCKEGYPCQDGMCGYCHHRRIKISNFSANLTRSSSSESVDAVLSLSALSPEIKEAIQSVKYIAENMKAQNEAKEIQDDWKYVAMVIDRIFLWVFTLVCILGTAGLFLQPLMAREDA
T3 sequence (P17787 26-502 limits assumed): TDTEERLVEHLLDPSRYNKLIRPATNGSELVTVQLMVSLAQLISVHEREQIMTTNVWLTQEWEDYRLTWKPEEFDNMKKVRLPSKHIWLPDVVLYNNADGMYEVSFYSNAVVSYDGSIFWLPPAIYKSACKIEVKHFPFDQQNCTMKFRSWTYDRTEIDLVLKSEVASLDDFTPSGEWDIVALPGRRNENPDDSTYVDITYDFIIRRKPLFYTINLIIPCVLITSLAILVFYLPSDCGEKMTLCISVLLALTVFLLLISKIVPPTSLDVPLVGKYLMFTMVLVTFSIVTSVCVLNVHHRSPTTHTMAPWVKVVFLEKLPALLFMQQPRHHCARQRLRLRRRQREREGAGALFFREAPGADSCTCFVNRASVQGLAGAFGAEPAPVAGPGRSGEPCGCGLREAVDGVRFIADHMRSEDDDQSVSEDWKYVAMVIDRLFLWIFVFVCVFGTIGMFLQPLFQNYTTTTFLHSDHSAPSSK

(α4β2)2α4 nAChR [5] = target: T4, (α4β2)2α4 nAChR (Homo sapiens, UniProt P17787+P43681); test: cell-based; details: read-out: ACh EC90
T4 sequence (P43681 29-627 limits assumed): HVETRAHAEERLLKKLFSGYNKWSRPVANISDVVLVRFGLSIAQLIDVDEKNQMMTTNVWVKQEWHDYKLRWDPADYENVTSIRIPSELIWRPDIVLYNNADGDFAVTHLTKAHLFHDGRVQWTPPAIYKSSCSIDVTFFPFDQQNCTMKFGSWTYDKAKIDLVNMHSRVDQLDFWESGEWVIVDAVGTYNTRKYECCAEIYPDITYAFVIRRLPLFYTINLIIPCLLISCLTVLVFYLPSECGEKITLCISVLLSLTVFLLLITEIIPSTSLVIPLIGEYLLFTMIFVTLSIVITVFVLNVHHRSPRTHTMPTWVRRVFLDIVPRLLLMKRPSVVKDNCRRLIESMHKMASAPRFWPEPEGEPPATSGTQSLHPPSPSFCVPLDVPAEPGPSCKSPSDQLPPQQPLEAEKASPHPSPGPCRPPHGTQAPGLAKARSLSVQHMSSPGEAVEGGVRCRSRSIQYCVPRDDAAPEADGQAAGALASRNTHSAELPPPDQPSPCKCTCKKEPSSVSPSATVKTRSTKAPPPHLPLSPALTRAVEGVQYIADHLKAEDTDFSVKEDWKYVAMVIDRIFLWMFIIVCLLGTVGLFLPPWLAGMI
T4 sequence (P17787 26-502 limits assumed): as the sequence (P17787 26-502 limits assumed) above

α7 nAChR [6] = target: T1, α7 nAChR; type: cell-based
Target sequence in this assay (P36544 23-502): as the sequence (P36544 23-502 limits assumed) above

β3-α6-β2-α4-β2 nAChR = β3-α6-β2-α4-β2 nAChR (Homo sapiens, UniProt P17787+P43681+Q15825); test: cell-based
(α3β4)2α3 nAChR [7] = target: T5, (α3β4)2α3 nAChR (Homo sapiens, UniProt P30926+P32297)
(α3β4)2β4 nAChR [8] = target: T6, (α3β4)2β4 nAChR (Homo sapiens, UniProt P30926+P32297)
α4β2α5 nAChR [9] = target: T2, α4β2α5 nAChR; test: cell-based; details: read-out: ACh EC90
(α4β2)2β2 nAChR [10] = target: T7, (α4β2)2β2 nAChR (Homo sapiens, UniProt P17787+P43681); test: cell-based
T7 sequence (P43681 27-627 limits assumed): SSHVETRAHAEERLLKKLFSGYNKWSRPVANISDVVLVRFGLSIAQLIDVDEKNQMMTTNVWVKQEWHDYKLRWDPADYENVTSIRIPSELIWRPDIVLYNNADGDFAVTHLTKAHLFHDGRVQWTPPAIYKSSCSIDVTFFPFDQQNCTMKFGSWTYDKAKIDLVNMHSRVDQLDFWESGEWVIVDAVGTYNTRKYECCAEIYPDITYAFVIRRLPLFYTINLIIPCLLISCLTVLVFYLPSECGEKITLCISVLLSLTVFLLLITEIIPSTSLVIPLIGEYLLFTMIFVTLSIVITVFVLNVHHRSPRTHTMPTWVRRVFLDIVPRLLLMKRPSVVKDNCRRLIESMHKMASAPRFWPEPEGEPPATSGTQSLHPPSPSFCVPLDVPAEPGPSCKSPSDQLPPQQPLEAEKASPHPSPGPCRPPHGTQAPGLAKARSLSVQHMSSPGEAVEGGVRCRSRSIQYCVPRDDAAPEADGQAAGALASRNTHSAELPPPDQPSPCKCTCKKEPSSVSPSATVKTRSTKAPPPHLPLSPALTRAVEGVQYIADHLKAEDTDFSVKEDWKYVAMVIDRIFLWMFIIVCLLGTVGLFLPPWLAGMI
T7 sequence (P17787 26-502 limits assumed): as the sequence (P17787 26-502 limits assumed) above

α6/α3β2β3 nAChR = α6/α3β2β3 nAChR (Homo sapiens, UniProt P17787+P32297+Q05901+Q15825); test: cell-based
(α3β4)2α3 nAChR [11] = target: T5, (α3β4)2α3 nAChR; test: cell-based; details: read-out: % Max Inhibition (95% CI)
(α3β4)2β4 nAChR [12] = target: T6, (α3β4)2β4 nAChR; test: cell-based; details: read-out: % Max Inhibition (95% CI)
α4β2α5 nAChR [13] = target: T2, α4β2α5 nAChR; test: cell-based
(α3β2)2β2 nAChR [14] = target: T3, (α3β2)2β2 nAChR; test: cell-based; details: read-out: % Max Inhibition (95% CI)
(α4β2)2β2 nAChR [15] = target: T7, (α4β2)2β2 nAChR; test: cell-based; details: read-out: % Max Inhibition (95% CI)
(α3β2)2α3 nAChR = (α3β2)2α3 nAChR (Homo sapiens, UniProt P17787+P32297); test: cell-based; details: read-out: % Max Inhibition (95% CI)
(α4β2)2α4 nAChR [16] = target: T4, (α4β2)2α4 nAChR; test: cell-based
[17] = read-out: % Max Inhibition (95% CI)

CCN1C[C@]2(COC(=O)c3ccccc3N3C(=O)C[C@H](C)C3=O)CC[C@H](OC)[C@@]34[C@@H]5C[C@H]6[C@H](OC)[C@@H]5[C@](O)(C[C@@H]6OC)[C@@](O)([C@@H](OC)[C@H]23)[C@@H]14 [MLA, Methyllycaconitine]
NH (95% CI) of ACh curve with co-applied MLA (α7 nAChR [1]): 0.9 (0.8 - 1.1) and 1.1 (0.9 - 1.2)
IC50 (α7 nAChR [1]; IC50 (95% CI): ACh apparent potency with co-applied MLA): 330 µM and 412 µM
block of ACh EC90 response by MLA (α7 nAChR [2]): prevented α7 nAChR activation

CC(=O)OCC[N+](C)(C)C [ACh, acetylcholine]
NH (1) (95% CI) (α4β2α5 nAChR [3]): 0.90 (0.82 – 0.99)
NH (1) (95% CI) ((α3β2)2β2 nAChR [4]): 0.95 (0.84 – 1.1)
EC90 ((α3β2)2β2 nAChR [4]; read-out: ACh EC90): 316 µM
EC90 ((α4β2)2α4 nAChR [5]): 316 µM
NH (95% CI) of ACh curve, drug treatment none (α7 nAChR [1]): 1.1 (1.0 - 1.2)
NH (1) (95% CI) (α7 nAChR [6]): 1.6 (1.4 – 1.9)
EC90 (α7 nAChR [6]; read-out: ACh EC90): 1260 µM
NH (1) (95% CI) (β3-α6-β2-α4-β2 nAChR): 0.77 (0.69 – 0.85)
EC90 (β3-α6-β2-α4-β2 nAChR; read-out: ACh EC90): 40 µM
NH (1) (95% CI) ((α3β4)2α3 nAChR [7]): 1.9 (1.7 – 2.1)
NH (1) (95% CI) ((α3β4)2β4 nAChR [8]): 1.0 (0.92 – 1.2)
EC90 (α4β2α5 nAChR [9]): 20 µM
NH (1) (95% CI) ((α4β2)2β2 nAChR [10]): 0.85 (0.76 – 0.95)
EC90 ((α4β2)2β2 nAChR [10]; read-out: ACh EC90): 100 µM

CC[C@H](C)[C@H](NC(=O)[C@H](CC(=O)O)NC(=O)[C@H](CS)NC(=O)[C@H](CO)NC(=O)[C@@H](NC(=O)CNC(=O)[C@H](CC(C)C)NC(=O)[C@H](CCCNC(=N)N)NC(=O)[C@@H]1CCCN1C(=O)[C@H](CC(N)=O)NC(=O)[C@H](CCC(=O)O)NC(=O)[C@@H]1CCCN1C(=O)[C@H](CCSC)NC(=O)[C@H](Cc1c[nH]c2ccccc12)NC(=O)[C@@H](NC(=O)[C@@H](NC(=O)[C@@H](N)Cc1ccc(O)cc1)[C@@H](C)O)[C@@H](C)CC)[C@@H](C)O)C(=O)N[C@@H](Cc1ccccc1)C(=O)N[C@H](C(=O)N[C@@H](CC(N)=O)C(=O)N[C@@H](CO)C(=O)N[C@@H](CCCNC(=N)N)C(=O)NCC(=O)N[C@@H](CCCCN)C(=O)N[C@@H](CCCNC(=N)N)C(=O)N[C@@H](C)C(=O)N[C@@H](CO)C(=O)N[C@@H](CCCCN)C(=O)NCC(=O)O)[C@@H](C)O [RVG peptide]
IC50 (α6/α3β2β3 nAChR): 300 µM
inhibition at 1000 µM (α6/α3β2β3 nAChR; [17]): 82%
inhibition at 1000 µM ((α3β4)2α3 nAChR [11]): 49%
inhibition at 1000 µM ((α3β4)2β4 nAChR [12]): 22%
IC50 (α4β2α5 nAChR [13]): 340 µM
inhibition at 1000 µM (α4β2α5 nAChR [13]; [17]): 67%
inhibition at 1000 µM ((α3β2)2β2 nAChR [14]): 57%
inhibition at 1000 µM ((α4β2)2β2 nAChR [15]): 46%
inhibition at 1000 µM ((α3β2)2α3 nAChR): 67%
IC50 ((α4β2)2α4 nAChR [16]; IC50 (95% CI)): 270 µM
IC50 ((α4β2)2α4 nAChR [16]; IC50, 95% CI): 220 to 340 µM
inhibition at 1000 µM ((α4β2)2α4 nAChR [16]; [17]): 76%
% Max Inhibition of ACh EC90 (95% CI) (α7 nAChR [2]): 98 (97 – 99) %
IC50 (α7 nAChR [2]): 25 µM
